One compound from ChEMBL document CHEMBL1201862, “PubChem BioAssay data set” (2004) can be followed below.

Activity calls are given as the source filed them. Where only a bound is given, the exact number is not on record here.

In one experiment the test system is Salmon testes DNA. Description: acridine orange-DNA binding displacement – biochemical, fluorescence polarization, cherry-picked samples, set 2, artefact control for KSHV LANA DNA-binding inhibitor project, dose response (AID 504727). Set-up: species or system Salmonidae.
Another experiment concerns the target Caspase-8 (Homo sapiens, UniProt Q14790). Description: inhibitors of purified CASP8 protease – biochemical, Z-IETD-R110 fluorescence, cherry-picked samples, selectivity assay for caspase-6 inhibitor project, dose response (AID 743294).
The target in experiment [1] is T1, 1-phosphatidylinositol 4,5-bisphosphate phosphodiesterase beta-3 (Homo sapiens, UniProt Q01970).
T1 sequence (Q01970 whole entry): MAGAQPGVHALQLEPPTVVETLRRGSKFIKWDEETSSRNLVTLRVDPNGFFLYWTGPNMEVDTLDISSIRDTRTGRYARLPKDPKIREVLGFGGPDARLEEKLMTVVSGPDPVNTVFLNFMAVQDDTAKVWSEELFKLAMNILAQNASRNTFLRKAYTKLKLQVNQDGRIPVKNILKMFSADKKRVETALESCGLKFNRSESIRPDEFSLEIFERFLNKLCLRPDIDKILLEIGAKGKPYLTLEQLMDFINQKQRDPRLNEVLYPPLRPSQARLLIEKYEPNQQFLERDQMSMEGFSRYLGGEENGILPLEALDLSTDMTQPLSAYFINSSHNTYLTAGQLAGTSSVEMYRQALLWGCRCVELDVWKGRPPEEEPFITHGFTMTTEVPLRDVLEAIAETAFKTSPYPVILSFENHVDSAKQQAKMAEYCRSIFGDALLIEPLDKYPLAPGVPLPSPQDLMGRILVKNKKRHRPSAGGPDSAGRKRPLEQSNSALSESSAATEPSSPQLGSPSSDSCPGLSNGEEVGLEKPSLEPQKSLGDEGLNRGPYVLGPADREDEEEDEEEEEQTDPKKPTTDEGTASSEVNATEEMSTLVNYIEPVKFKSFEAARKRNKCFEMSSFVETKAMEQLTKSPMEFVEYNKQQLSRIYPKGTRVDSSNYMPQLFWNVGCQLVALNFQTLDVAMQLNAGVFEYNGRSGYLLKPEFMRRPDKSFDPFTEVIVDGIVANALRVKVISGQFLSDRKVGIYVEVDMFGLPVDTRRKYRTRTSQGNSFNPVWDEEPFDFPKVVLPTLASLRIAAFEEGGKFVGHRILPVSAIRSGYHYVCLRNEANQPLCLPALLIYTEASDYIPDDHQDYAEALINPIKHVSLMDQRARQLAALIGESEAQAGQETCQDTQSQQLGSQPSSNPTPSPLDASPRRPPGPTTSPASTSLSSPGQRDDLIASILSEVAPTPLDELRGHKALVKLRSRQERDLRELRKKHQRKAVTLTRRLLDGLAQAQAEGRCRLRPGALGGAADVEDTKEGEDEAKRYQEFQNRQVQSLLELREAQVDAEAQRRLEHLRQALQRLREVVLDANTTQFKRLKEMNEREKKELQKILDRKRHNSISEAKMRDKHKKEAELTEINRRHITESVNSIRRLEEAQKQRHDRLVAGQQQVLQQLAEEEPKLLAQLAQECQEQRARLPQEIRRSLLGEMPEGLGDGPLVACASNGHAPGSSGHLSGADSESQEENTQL
Description: Fluorescence-based biochemical high throughput dose response assay to identify inhibitors of phospholipase C isozymes (PLC-B3).

Sequence of Caspase-8 (Q14790 217-374 limits assumed): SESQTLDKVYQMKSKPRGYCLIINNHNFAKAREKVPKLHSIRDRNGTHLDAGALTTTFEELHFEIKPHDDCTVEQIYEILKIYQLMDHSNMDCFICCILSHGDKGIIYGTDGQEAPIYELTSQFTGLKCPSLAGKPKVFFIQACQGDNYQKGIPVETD
Sequence of Caspase-8 (Q14790 385-479 limits assumed): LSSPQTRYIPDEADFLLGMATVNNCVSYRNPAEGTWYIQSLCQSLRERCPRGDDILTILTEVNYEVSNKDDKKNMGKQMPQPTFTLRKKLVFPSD

On to `O=c1c(O)cccc2cc(O)c(O)c(O)c12` [PURPUROGALLIN], for which the concentration at half-maximal activity (AC50) (commonly the concentration at which the activity in the assay is half-maximal) was 49.9 µM (active) in the experiment with Salmon testes DNA and > 70 µM (inactive) at Caspase-8. In addition, the IC50 (as a rule, the concentration that gives 50% inhibition) in experiment [1] is > 123 µM (inactive).
